Reference: patent publication US8541588B2, “Sulfonamide derivatives” (Pfizer Limited, priority 2009, dated 2013)
Blank lines part the entries; values can stand above or below the compound they belong to.

Molecular target: T1, Nav1.7 (or SCN9A) channel; HEK cells stably transfected with hSCN9A (Homo sapiens, UniProt Q15858)
T1 construct: expressed in transfected cells
Assay: Nav1.7 block, PatchXpress 7000 automated whole-cell voltage clamp, estimated IC50 (EIC50)
Format: cell-based
Conditions: estimated IC50, PatchXpress platform

[1] = hSCN9A HEK cells, Examples 283-814
[2] = hSCN9A HEK cells held at V1/2 of inactivation
[3] = hSCN9A HEK cells, Examples 815-1040

T1 sequence (Q15858 whole entry): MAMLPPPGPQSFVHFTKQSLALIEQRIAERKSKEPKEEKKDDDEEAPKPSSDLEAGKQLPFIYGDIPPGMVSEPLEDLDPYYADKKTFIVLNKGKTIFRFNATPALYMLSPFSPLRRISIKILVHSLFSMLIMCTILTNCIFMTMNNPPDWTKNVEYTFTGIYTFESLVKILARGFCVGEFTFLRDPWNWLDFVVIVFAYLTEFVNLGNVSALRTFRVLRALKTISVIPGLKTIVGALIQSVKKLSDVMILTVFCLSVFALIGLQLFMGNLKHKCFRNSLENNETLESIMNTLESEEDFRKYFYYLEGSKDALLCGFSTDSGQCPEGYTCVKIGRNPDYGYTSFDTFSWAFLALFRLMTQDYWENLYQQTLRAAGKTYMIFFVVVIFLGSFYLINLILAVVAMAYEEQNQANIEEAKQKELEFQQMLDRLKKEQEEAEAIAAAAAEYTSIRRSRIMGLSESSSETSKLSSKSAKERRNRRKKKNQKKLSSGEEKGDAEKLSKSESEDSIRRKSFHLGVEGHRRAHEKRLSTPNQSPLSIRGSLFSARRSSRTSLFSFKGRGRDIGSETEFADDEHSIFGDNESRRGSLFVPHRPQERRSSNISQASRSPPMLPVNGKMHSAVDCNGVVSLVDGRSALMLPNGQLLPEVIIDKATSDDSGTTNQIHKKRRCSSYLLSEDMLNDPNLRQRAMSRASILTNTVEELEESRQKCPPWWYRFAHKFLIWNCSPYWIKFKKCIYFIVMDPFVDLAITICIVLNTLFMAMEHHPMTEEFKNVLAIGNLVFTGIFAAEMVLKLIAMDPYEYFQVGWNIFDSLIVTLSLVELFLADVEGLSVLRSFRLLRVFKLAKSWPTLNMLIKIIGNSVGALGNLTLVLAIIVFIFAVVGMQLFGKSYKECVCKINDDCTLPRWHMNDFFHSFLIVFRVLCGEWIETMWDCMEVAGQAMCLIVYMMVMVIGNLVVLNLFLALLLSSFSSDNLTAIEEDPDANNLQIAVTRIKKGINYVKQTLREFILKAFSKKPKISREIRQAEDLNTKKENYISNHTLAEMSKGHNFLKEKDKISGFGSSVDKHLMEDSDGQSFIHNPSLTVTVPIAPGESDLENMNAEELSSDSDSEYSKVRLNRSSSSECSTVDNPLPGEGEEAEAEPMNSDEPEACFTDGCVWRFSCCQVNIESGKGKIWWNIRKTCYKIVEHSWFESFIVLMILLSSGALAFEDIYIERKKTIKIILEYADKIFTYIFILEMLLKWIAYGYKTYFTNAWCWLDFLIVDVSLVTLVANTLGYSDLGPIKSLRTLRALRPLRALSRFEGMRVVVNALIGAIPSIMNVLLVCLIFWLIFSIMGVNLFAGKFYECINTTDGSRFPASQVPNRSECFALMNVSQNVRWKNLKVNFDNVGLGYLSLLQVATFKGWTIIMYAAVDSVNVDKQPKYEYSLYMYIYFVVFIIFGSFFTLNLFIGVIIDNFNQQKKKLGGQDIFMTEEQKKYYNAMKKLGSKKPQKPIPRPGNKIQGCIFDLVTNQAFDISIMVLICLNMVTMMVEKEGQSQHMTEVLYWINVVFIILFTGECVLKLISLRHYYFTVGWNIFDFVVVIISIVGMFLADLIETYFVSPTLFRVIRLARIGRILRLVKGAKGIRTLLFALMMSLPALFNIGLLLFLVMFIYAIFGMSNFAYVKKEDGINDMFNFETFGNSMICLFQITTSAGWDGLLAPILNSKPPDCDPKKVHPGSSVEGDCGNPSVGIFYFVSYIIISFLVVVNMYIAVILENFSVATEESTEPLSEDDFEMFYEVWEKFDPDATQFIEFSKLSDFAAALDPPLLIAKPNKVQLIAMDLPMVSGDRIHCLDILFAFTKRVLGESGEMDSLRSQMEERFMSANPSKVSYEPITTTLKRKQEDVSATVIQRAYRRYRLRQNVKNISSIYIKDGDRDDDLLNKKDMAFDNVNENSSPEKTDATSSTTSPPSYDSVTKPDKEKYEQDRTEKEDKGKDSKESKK

Compound: Nc1cc(-c2cc(Cl)ccc2Oc2cc(F)c(S(=O)(=O)Nc3nncs3)cc2Cl)ccn1 [Example 814, 4-[2-(2-aminopyridin-4-yl)-4-chlorophenoxy]-5-chloro-2-fluoro-N-1,3,4-thiadiazol-2-ylbenzenesulfonamide]
IC50 [1]: 6.2 nM

Compound: Nc1[nH]ncc1-c1cc(Cl)ccc1Oc1ccc(S(=O)(=O)Nc2cscn2)cc1Cl [Example 912, 4-[2-(5-amino-1H-pyrazol-4-yl)-4-chlorophenoxy]-3-chloro-N-1,3-thiazol-4-ylbenzenesulfonamide]
IC50 [3]: 14 nM

Compound: Nc1[nH]ncc1-c1cc(Cl)ccc1Oc1ccc(S(=O)(=O)Nc2ncns2)cc1Cl [Example 913, 4-[2-(5-amino-1H-pyrazol-4-yl)-4-chlorophenoxy]-3-chloro-N-1,2,4-thiadiazol-5-ylbenzenesulfonamide]
IC50 [3]: 0.9 nM

Compound: CCn1nc(C(F)(F)F)cc1-c1ccc(Oc2ccc(S(=O)(=O)Nc3ncns3)cc2Cl)cc1 [Example 473, 3-chloro-4-{4-[1-ethyl-3-(trifluoromethyl)-1H-pyrazol-5-yl]phenoxy}-N-1,2,4-thiadiazol-5-ylbenzenesulfonamide]
IC50 [1]: 72 nM

Compound: Cc1[nH]ncc1-c1cc(Cl)ccc1Oc1cc(F)c(S(=O)(=O)Nc2ncns2)cc1F [Example 635, 4-[4-chloro-2-(5-methyl-1H-pyrazol-4-yl)phenoxy]-2,5-difluoro-N-1,2,4-thiadiazol-5-ylbenzenesulfonamide]
IC50 [1]: 6.3 nM

Compound: O=S(=O)(Nc1cscn1)c1cc(Cl)c(Oc2ccc(Cl)cc2-c2ccnnc2)cc1F [Example 845, 5-chloro-4-(4-chloro-2-pyridazin-4-ylphenoxy)-2-fluoro-N-1,3-thiazol-4-ylbenzenesulfonamide]
IC50 [3]: 41 nM

Compound: tert-Butyl [(5-chloro-2,4-difluorophenyl)sulfonyl](5-cyano-1,3-thiazol-4-yl)carbamate [Example 516]
IC50 [1]: 10000 nM

Compound: O=S(=O)(Nc1ncccn1)c1cc(Cl)c(Oc2ccc(Cl)cc2-c2ccnnc2)cc1F [Example 941, 5-chloro-4-(4-chloro-2-pyridazin-4-ylphenoxy)-2-fluoro-N-pyrimidin-2-ylbenzenesulfonamide]
IC50 [3]: 72 nM

Compound: CC(C)(C)n1cc(Cc2cccc(Oc3ccc(S(=O)(=O)Nc4cscn4)cc3C#N)c2)cn1 [Example 419, 4-{3-[(1-tert-butyl-1H-pyrazol-4-yl)methyl]phenoxy}-3-cyano-N-1,3-thiazol-4-ylbenzenesulfonamide]
IC50 [1]: 2100 nM

Compound: N#Cc1cc(S(=O)(=O)Nc2nccs2)ccc1Oc1cc(C2CC2)nn1C1CCCCC1 [Example 192, 3-Cyano-4-(2-cyclohexyl-5-cyclopropyl-2H-pyrazol-3-yloxy)-N-thiazol-2-yl-benzenesulfonamide]
IC50 [2]: 2050 nM

Compound: COc1ccc(-c2cccc(C)c2Oc2ccc(S(=O)(=O)Nc3ncns3)cc2C#N)cc1F [Example 41, 3-cyano-4-[(3′-fluoro-4′-methoxy-3-methylbiphenyl-2-yl)oxy]-N-1,2,4-thiadiazol-5-ylbenzenesulfonamide]
IC50 [2]: 10900 nM

Compound: O=S(=O)(Nc1ncns1)c1cc(F)c(Oc2cc(Cl)c(F)cc2-c2cn[nH]c2)cc1F [Example 752, 4-[5-chloro-4-fluoro-2-(1H-pyrazol-4-yl)phenoxy]-2,5-difluoro-N-1,2,4-thiadiazol-5-ylbenzenesulfonamide]
IC50 [1]: 2.1 nM

Compound: N#Cc1cc(S(=O)(=O)Nc2cscn2)ccc1Oc1ccc(C(F)(F)F)cc1-c1cnn(C2CNC2)c1 [Example 727, 4-[2-(1-azetidin-3-yl-1H-pyrazol-4-yl)-4-(trifluoromethyl)phenoxy]-3-cyano-N-1,3-thiazol-4-ylbenzenesulfonamide]
IC50 [1]: 1900 nM

Compound: CCN1CC(n2nccc2-c2cc(F)ccc2Oc2cc(F)c(S(=O)(=O)Nc3ncns3)cc2Cl)C1 [Example 848, 5-chloro-4-{2-[1-(1-ethylazetidin-3-yl)-1H-pyrazol-5-yl]-4-fluorophenoxy}-2-fluoro-N-1,2,4-thiadiazol-5-ylbenzenesulfonamide]
IC50 [3]: 5.1 nM

Compound: CCn1nc(C(F)(F)F)cc1-c1ccc(Oc2ccc(S(=O)(=O)Nc3ncccc3Cl)cc2C#N)cc1 [Example 339, N-(3-chloropyridin-2-yl)-3-cyano-4-{4-[1-ethyl-3-(trifluoromethyl)-1H-pyrazol-5-yl]phenoxy}benzenesulfonamide]
IC50 [1]: 15000 nM

Compound: Cn1nccc1-c1cc(Cl)ccc1Oc1ccc(S(=O)(=O)Nc2cnsn2)cc1C#N [Example 921, 4-[4-chloro-2-(1-methyl-1H-pyrazol-5-yl)phenoxy]-3-cyano-N-1,2,5-thiadiazol-3-ylbenzenesulfonamide]
IC50 [3]: 3900 nM

Compound: N#Cc1cc(S(=O)(=O)Nc2cscn2)ccc1Oc1ccc(Cl)cc1-c1ccn(C2CCNCC2)n1 [Example 761, 4-[4-chloro-2-(1-piperidin-4-yl-1H-pyrazol-3-yl)phenoxy]-3-cyano-N-1,3-thiazol-4-ylbenzenesulfonamide]
IC50 [1]: 5400 nM

More lines, now with the values ahead:

IC50 [2]: 1050 nM
Compound: Cc1cc(C)n(-c2ccc(Oc3ccc(S(=O)(=O)Nc4nccs4)cc3C#N)cc2)n1 [Example 186, 3-cyano-4-[4-(3,5-dimethyl-pyrazol-1-yl)-phenoxy]-N-thiazol-2-yl-benzenesulfonamide]

IC50 [1]: 3100 nM
Compound: N#Cc1cc(S(=O)(=O)Nc2nccs2)ccc1Oc1cccc(-c2ccccn2)c1 [Example 449, 3-cyano-4-(3-pyridin-2-ylphenoxy)-N-1,3-thiazol-2-ylbenzenesulfonamide]

IC50 [3]: 2700 nM
Compound: Cc1n[nH]cc1-c1ccccc1Oc1ccc(S(=O)(=O)Nc2nccs2)cc1C(N)=O [Example 983, 2-[2-(3-methyl-1H-pyrazol-4-yl)phenoxy]-5-[(1,3-thiazol-2-ylamino)sulfonyl]benzamide]

IC50 [1]: 40 nM
Compound: N#Cc1cc(S(=O)(=O)Nc2nccs2)ccc1Oc1cc(Cl)ccc1-c1ccn[nH]1 [Example 711, 4-[5-chloro-2-(1H-pyrazol-5-yl)phenoxy]-3-cyano-N-1,3-thiazol-2-ylbenzenesulfonamide]

IC50 [2]: 33000 nM
Compound: N#Cc1cc(S(=O)(=O)Nc2nccs2)ccc1Oc1ccc(-c2cc[nH]n2)cc1F [Example 185, 3-cyano-4-[2-fluoro-4-(1H-pyrazol-3-yl)-phenoxy]-N-thiazol-2-yl-benzenesulfonamide]

IC50 [3]: 28 nM
Compound: Cc1cnccc1-c1cc(Cl)ccc1Oc1ccc(S(=O)(=O)Nc2ncns2)cc1C#N [Example 1011, 4-[4-chloro-2-(3-methylpyridin-4-yl)phenoxy]-3-cyano-N-1,2,4-thiadiazol-5-ylbenzenesulfonamide]

IC50 [2]: 180 nM
Compound: Cn1nc(C(F)(F)F)cc1-c1ccc(Oc2ccc(S(=O)(=O)Nc3nccs3)cc2C#N)cc1 [Example 282, 3-cyano-4-[4-(2-methyl-5-trifluoromethyl-2H-pyrazol-3-yl)-phenoxy]-N-thiazol-2-yl-benzenesulfonamide]

IC50 [2]: >10000 nM
Compound: N#Cc1cc(S(=O)(=O)Nc2ncco2)ccc1Oc1ccccc1-c1ccccc1 [Example 95, 4-(biphenyl-2-yloxy)-3-cyano-N-1,3-oxazol-2-ylbenzenesulfonamide]

IC50 [1]: >300 nM
Compound: CCOCn1nncc1-c1cc(Cl)ccc1Oc1ccc(S(=O)(=O)Nc2nccs2)cc1C#N [Example 323, 4-{4-chloro-2-[1-(ethoxymethyl)-1H-1,2,3-triazol-5-yl]phenoxy}-3-cyano-N-1,3-thiazol-2-ylbenzenesulfonamide]

IC50 [1]: 740 nM
Compound: CCn1nc(C)cc1-c1ccc(Oc2ccc(S(=O)(=O)Nc3nccs3)cc2C#N)cc1 [Example 388, 3-cyano-4-[4-(1-ethyl-3-methyl-1H-pyrazol-5-yl)phenoxy]-N-1,3-thiazol-2-ylbenzenesulfonamide]
